Read-outs that look alike come from different tables or passages of the source.
What was measured:
recombinant human HDAC6 = target: T1, recombinant human HDAC6 (Homo sapiens, UniProt Q9UBN7); assay: Enzymatic screening on recombinant human HDAC6; type: biochemical; settings: Table 2; read-out: HDAC6 IC50
T1 sequence (Q9UBN7 1-1215): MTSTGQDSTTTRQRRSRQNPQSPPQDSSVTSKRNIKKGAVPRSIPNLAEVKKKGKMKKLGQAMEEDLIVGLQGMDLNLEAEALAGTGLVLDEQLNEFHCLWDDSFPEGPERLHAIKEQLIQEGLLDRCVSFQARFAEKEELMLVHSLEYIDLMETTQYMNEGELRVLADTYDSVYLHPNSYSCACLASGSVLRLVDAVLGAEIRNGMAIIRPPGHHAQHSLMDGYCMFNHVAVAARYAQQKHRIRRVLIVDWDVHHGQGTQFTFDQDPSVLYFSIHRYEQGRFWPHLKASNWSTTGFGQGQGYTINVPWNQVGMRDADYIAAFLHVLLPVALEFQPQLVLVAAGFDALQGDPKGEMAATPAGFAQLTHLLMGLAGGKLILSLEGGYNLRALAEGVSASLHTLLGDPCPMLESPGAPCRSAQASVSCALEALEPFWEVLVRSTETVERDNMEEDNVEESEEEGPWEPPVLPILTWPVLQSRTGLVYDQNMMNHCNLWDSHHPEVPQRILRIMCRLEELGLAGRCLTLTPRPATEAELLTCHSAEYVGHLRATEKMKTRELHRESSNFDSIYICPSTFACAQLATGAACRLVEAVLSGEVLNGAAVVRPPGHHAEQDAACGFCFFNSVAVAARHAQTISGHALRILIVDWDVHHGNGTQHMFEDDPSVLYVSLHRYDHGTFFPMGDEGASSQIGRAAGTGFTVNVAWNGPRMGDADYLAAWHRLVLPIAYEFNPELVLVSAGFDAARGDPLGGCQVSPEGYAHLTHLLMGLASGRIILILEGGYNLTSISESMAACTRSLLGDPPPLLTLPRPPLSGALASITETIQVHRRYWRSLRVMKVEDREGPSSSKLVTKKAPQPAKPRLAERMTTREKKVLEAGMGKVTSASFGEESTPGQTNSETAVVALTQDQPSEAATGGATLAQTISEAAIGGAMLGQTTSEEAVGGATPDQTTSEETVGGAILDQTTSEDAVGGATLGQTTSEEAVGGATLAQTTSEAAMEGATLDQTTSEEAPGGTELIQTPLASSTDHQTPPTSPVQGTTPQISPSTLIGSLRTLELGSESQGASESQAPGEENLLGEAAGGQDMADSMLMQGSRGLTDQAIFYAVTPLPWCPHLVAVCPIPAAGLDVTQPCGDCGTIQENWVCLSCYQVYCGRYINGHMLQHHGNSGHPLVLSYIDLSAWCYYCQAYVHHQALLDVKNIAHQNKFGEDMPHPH
Summary of the method: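 Compound + recombinant human HDAC, 30 °C, incubation time isoform-specific. Substrate (FdL, FdL-Green or Tfal) added as 2× stock in 25 mM Tris-HCl pH 8/130 mM NaCl/0.05% Tween-20/10% glycerol; reaction at 30 °C.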

[1] = tested on: B 697 promyelocytic cell line; assay: Cytotoxicity on 697 cell line (CellTiter 96); type: cell-based; settings: 72 hours incubation, read-out: 697 TOXICITY
Summary of the method: (§1)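 Mitochondrial-function readout (CellTiter 96 Aqueous One) after 72 h compound exposure, begun 24 h post-seeding. Dose ranges: 697 cells, 1 to 10000 nM at 2×10^4 cells/well; PBMCs, 1.5 to 10000 nM at 5×10^5 cells/well.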

[2] = tested on: peripheral blood mononuclear cells (PBMCs); assay: Cytotoxicity on PBMCs (CellTiter 96); type: cell-based; settings: PBMC, 72 h; read-out: PBMC TOXICITY (72 h)
Summary of the method: as §1

[3] = Stability to Phase I metabolism in human S9 liver fraction; type: in vitro ADME; settings: human, 90 min, pH 7.4
Summary of the method: (§2)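 Phase I stability in human and rat hepatic S9 at 37 °C, sampled up to 90 min. Samples were stopped with acidified acetonitrile on ice, then quantified by HPLC-UV or LC-MS/MS.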

Stability in rat plasma = type: in vitro ADME; settings: after 4 hours, 37° C.
Summary of the method: (§3)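 Compounds incubated at 37° C in rat or human plasma at 50 μM (UV/HPLC) or 1 or 2 μM (LC-MS/MS) for 0–4 h. Reaction stopped with acidified acetonitrile on ice; percent remaining versus initial amount and plasma half-life calculated.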

[4] = Stability to Phase I metabolism in rat S9 liver fraction; type: in vitro ADME; settings: after 90 min, 37° C.
Summary of the method: as §2

[5] = Stability in human plasma; type: in vitro ADME; settings: after 4 hours, 37° C.
Summary of the method: as §3

human PBMCs = assay: Mixed Lymphocytes Reaction (MLR) with human PBMCs (IFN-γ, TNF-α, IL-6); type: cell-based; settings: PBMC, 144 h, two-way MLR, 6 days, 0.05 μM, negative = induction
Description: In order to study HDAC6 inhibitors ability to inhibit the activation of allogenic T CD4+ cells, a Mixed Lymphocytes Reaction (MLR or mixed lymphocyte culture, CLM) assay was performed. This is a reaction involving blast transformation of in vitro cultured lymphocytes in the presence of allogeneic lymphocytes. There is the so-called “two-way” reaction wherein the two lymphocyte populations stimulate each other to proliferate, and the so-called “one way” reaction, wherein the proliferation of one of the two populations is inhibited by mitomycin C or irradiation, these cells provide proliferation stimulus (stimulator) to the so-called “responder” cells.
Human peripheral blood mononuclear cells (PBMCs) used in MLR were obtained by Ficoll gradient separation from Buffy Coat of healthy donors.
We used a two-way MLR. The cells from the two donors were plated at 1:1 ratio (allogenic stimulation) to the final concentration of 2×10^5 per well in U-bottom 96 well plates in RPMI 1640 medium with 10% FBS and antibiotics. As a control we individually plated the cells from each donor (singenic stimulus). The experiment for each inhibitor was set in deduplicate for allogeneic stimuli and in quintuplicate for singenic stimuli. The cells were cultured for 6 days in an incubator at 37° C.
After 6 days the effect of the test compounds was evaluated by measuring the production of pro-inflammatory cytokines recognized to be characteristics of this assay.
For this purpose, the culture supernatant was harvested and used for IFN-γ, TNF-α and IL-6 inflammatory cytokine assay.
The JAK inhibitor ruxolitinib was used as the active reference compound in the test.
Values in the table indicate the inhibition percentages. Negative values indicate an induction.

| IC50 (recombinant human HDAC6) [nM] | residual percentage in human S9 fraction [3] [%] | residual percentage in rat plasma (Stability in rat plasma) [%] | residual percentage in rat S9 fraction [4] [%] | residual percentage in human plasma [5] [%] | SMILES | IC50 [1] [nM] | IC50 [2] [nM] | inhibition at 0.05 µM (human PBMCs; read-out: MLR IFN-γ inhibition percentage) [%] | inhibition at 0.05 µM (human PBMCs; read-out: MLR IL-6 inhibition percentage) [%] | inhibition at 0.05 µM (human PBMCs; read-out: MLR TNF-α inhibition percentage) [%] |
| --- | --- | --- | --- | --- | --- | --- | --- | --- | --- | --- |
| 3 | 64 | 73 | 9 | 99 | O=C(NO)c1ccc(Cc2nnc(-c3ccccc3)s2)cc1 [compound 190, 4-[(5-phenyl-1,3,4-thiadiazol-2-yl)methyl]benzenecarbohydroxamic acid] | 333 | 983 | – | – | – |
| – | – | – | – | – | N#CC[C@H](C1CCCC1)n1cc(-c2ncnc3[nH]ccc23)cn1 [ruxolitinib, reference compound] | – | – | 87.9 | 73.3 | 61.2 |

Source: patent US11351178B2, “Selective HDAC6 inhibitors” (ITALFARMACO S.P.A., priority 2017, dated 2022)
